The source of these data is patent publication US5210239A, “Ouinone derivatives and pharmacological use” (Eisai Co., Ltd., priority 1989, dated 1993).

In series [1] the test system is rat D-galactosamine (GalN)-induced acute hepatitis model. The series can be described thus: rat D-galactosamine (GalN)-induced acute hepatitis model. It counts as in vivo, Fischer (F 344) male rat. The settings on record: 300 mg/kg GalN s.c., compound 100 mg/kg oral 1 hr after GalN, blood 48 hr after GalN. On the procedure: 300 mg/kg of GalN was subcutaneously injected into a Fischer (F 344) male rat(s) (around 180 g) to induce acute hepatitis. Each test compound was suspended in a 0.5% aqueous methylcellulose solution and orally administered at a dose of 100 mg/kg one hr after the injection of GalN.
Blood was sampled from the tail of the rat 48 hr after the injection of GalN. The blood clotting time was measured by Hepaplastin test (HPT), and at the same time GPT activity in the plasma was measured enzymatically.

In series [2] the test system is mouse propionibactrium acnes (P. acnes)-lipopolysaccharide (LPS)-induced fulminant hepatitis model. Put plainly: mouse P. acnes-lipopolysaccharide (LPS)-induced fulminant hepatitis model. The class given is in vivo, male Balb/c mice. Particulars: for responders at 100 mg/kg: Cutibacterium acnes, po, 24 h, read-out: Survival rate (%), test compd. group. How it is done:
One mg/mouse of heat-killed P. acnes was intravenously injected into a five-week-old male Balb/c mice and LPS was additionally intravenously injected at a dose of 1 microgram/mouse 7 days after the injection of P.acnes to induce fulminant hepatitis. Each test compound was suspended in a 0.5% methylcellulose solution and orally administered at a dose of 100 mg/kg 30 min before the intravenous injection of LPS.
Survival rates and GPT activity in plasma of the survivors were determined in 24 hours after the intravenous injection of LPS. The mice treated with each test compound against the lethality and hepatic injury induced with P. acnes-LPS are shown in Table 2.

A short description of series [3]: Toxicity test, one week oral administration. The class given is in vivo. Also noted: dose or concentration left out as unconfirmed. Particulars: seven-week male SD rat.
The mark [4] stands for this setting: read-out: Percentage inhibition (%) GPT (plasma GPT activity).
The mark [5] stands for this setting: read-out: Percentage inhibition (%) HPT (blood clotting time, Hepaplastin test).
Setting [6] is: plasma GPT of survivors 24 hours after LPS, 100 mg/kg oral, value is test group.

Where two headings read alike, the source gives them in different places.

For `COC1=C(OC)C(=O)C(/C=C(\CCCCC#N)C(=O)O)=C(C)C1=O` [compound 176], the inhibition in vivo at 100 mg/kg in series [1] (setting [4]) came out at 96%; in series [1] (setting [5]), 97%. Besides, the responders at 100 mg/kg in series [2] stood at 80%. For the same compound, the “GPT (Ku/ml), test compd. group [part 2]” value in series [2] (setting [6]) stood at 297 ± 50 Ku/ml.
Consider `CCOC1=C(OC)C(=O)C(C)=C(/C=C(\CC2CCCCC2)C(=O)O)C1=O` [compound 142], for which the inhibition in vivo at 100 mg/kg stood at 76% in series [1] (setting [4]) and 67% in series [1] (setting [5]). Besides, the responders at 100 mg/kg in series [2] was 100%. The “GPT (survival rate), test compd. group (%) [part 1]” value (“GPT (survival rate) … (%) [part 1]” for short) in series [2] (setting [6]) amounted to 381 ± 19%. In series [3], the death result was “no compound was found to cause death”.
As for `CCCCC/C(=C\c1c(C)c(O)c(OCC)c(OCC)c1OCC)C(=O)O` [compound 20], the inhibition in vivo at 100 mg/kg in series [1] (setting [4]) and in series [1] (setting [5]) was 68% in each case. Besides, the responders at 100 mg/kg in series [2] was found to be 70%. The “GPT (survival rate) … (%) [part 1]” value in series [2] (setting [6]) was 293 ± 65%.
For the compound `COC1=C(/C=C(\CC2CCCCC2)C(=O)O)C(=O)C(OC)=C(OC)C1=O` [compound 149], the values for the inhibition in vivo at 100 mg/kg in series [1] (setting [4]) and in series [1] (setting [5]) were 93% and 95%, respectively. Moreover, the responders at 100 mg/kg in series [2] was 67%. Also, the “GPT (survival rate) … (%) [part 1]” value in series [2] (setting [6]) worked out at 209 ± 66%.
Turning to `CCCCCCCCC/C(=C\c1c(C)c(O)c(OC)c(OC)c1O)C(=O)O` [compound 127], the results for the inhibition in vivo at 100 mg/kg in series [1] (setting [4]) and in series [1] (setting [5]) were 60% and 71%, respectively.
For the compound `COc1c(O)c(C)c(/C=C(\C(=O)O)c2ccccc2)c(OC)c1OC` [Example 14, (Z)-3-[5-(1-Hydroxy-6-methyl-2,3,4-trimethoxy)phenyl]-2-phenyl-2-propenoic acid], the inhibition in vivo at 100 mg/kg in series [1] (setting [4]) was 78%; in series [1] (setting [5]) it was 76%. Further, the responders at 100 mg/kg in series [2] stood at 100%. Further, the “GPT (survival rate) … (%) [part 1]” value in series [2] (setting [6]) was 297 ± 50%.
On to `CCCCCCCCC/C(=C\C1=C(C)C(=O)C(OC)=C(OC)C1=O)C(=O)O` [Example 4, (E)-3-[5-(2,3-Dimethoxy-6-methyl-1,4-benzoquinoyl)]-2-nonyl-2-propenoic acid], for which the inhibition in vivo at 100 mg/kg is 91% in series [1] (setting [4]) and 87% in series [1] (setting [5]). For the same compound, in series [2], the responders at 100 mg/kg worked out at 64%. Also, the “GPT (survival rate) … (%) [part 1]” value in series [2] (setting [6]) is on record as 358 ± 40%. The death entry in series [3] is listed as “no compound was found to cause death”.
For the compound `COC1=C(OC)C(=O)C(/C=C(\Cc2cccs2)C(=O)O)=C(C)C1=O` [compound 217], the inhibition in vivo at 100 mg/kg in series [1] (setting [4]) was 97%; in series [1] (setting [5]) it was 99%. Further, the responders at 100 mg/kg in series [2] stood at 80%.
Turning to `CCOC1=C(OCC)C(=O)C(/C=C(\CC2CCCCC2)C(=O)O)=C(C)C1=O` [compound 144], the inhibition in vivo at 100 mg/kg in series [1] (setting [4]) worked out at 78%; in series [1] (setting [5]), 79%. The responders at 100 mg/kg in series [2] was determined as 100%. Moreover, in series [2] (setting [6]), the “GPT (survival rate) … (%) [part 1]” value turned out to be 280 ± 31%.
Consider `COC1=C(OC)C(=O)C(/C=C(\CC2CCCCC2)C(=O)O)=C(C)C1=O` [compound 141], for which the inhibition in vivo at 100 mg/kg is 100% in series [1] (setting [4]) and 98% in series [1] (setting [5]). The responders at 100 mg/kg in series [2] is 25%.
Take `CCOC1=C(OC)C(=O)C(C)=C(/C=C(\CCC(C)C)C(=O)O)C1=O` [compound 135]: the inhibition in vivo at 100 mg/kg in series [1] (setting [4]) came to 52%; in series [1] (setting [5]), 51%. Besides, in series [2], the responders at 100 mg/kg was found to be 50%.
Regarding `COC1=C(/C=C(\CCC(C)C)C(=O)O)C(=O)C(OC)=C(OC)C1=O` [compound 137], the inhibition in vivo at 100 mg/kg was found to be 77% in series [1] (setting [4]) and 73% in series [1] (setting [5]). Besides, in series [2], the responders at 100 mg/kg turned out to be 30%. Further, the death entry in series [3] is on record as “no compound was found to cause death”.
Turning to `COC1=C(OC)C(=O)C(/C=C(\CCCSC)C(=O)O)=C(C)C1=O` [compound 183], the inhibition in vivo at 100 mg/kg in series [1] (setting [4]) stood at 86%; in series [1] (setting [5]), 80%. In series [2], the responders at 100 mg/kg came out at 22%.
As for `CCOc1c(O)c(C)c(/C=C(\Cc2ccccc2)C(=O)O)c(OCC)c1OCC` [compound 79], the inhibition in vivo at 100 mg/kg was found to be 94% in series [1] (setting [4]) and 89% in series [1] (setting [5]). In addition, the responders at 100 mg/kg in series [2] came to 50%. The “GPT (survival rate) … (%) [part 1]” value in series [2] (setting [6]) is recorded as 1009 ± 196%.
